Results taken from patent US8841233B2, “Herbicidal compositions comprising 4-amino-3-chloro-5-fluoro-6-(4-chloro-2-fluoro-3-methoxyphenyl) pyridine-2-carboxylic acid or a derivative thereof and 4-hydroxyphenyl-pyruvate dioxygenase (HPPD) inhibitors” (Dow Agrosciences LLC, priority 2012, dated 2014).
Several values for one entry are separate records, joined by “and”; a condition that tells them apart may be missing. Equal entries are not always repeated.

Tests used:
CYPRO = assay: In-water applied weed control, transplanted paddy rice, greenhouse (Example II); type: in vivo, Cyperus rotundus L.
Description: (§1) Evaluation of in-Water Applied Herbicidal Mixtures for Weed Control in Transplanted Paddy Rice
(§2) Weed seeds or nutlets of the desired test plant species were planted in puddled soil (mud) prepared by mixing a shredded, non-sterilized mineral soil (50.5 percent silt, 25.5 percent clay, and 24 percent sand, with a pH of about 7.6 and an organic matter content of about 2.9 percent) and water at a 1:1 volumetric ratio. The prepared mud was dispensed in 365 mL aliquots into 16-ounce (oz.) non-perforated plastic pots with a surface area of 86.59 square centimeters (cm^2) leaving a headspace of 3 centimeters (cm) in each pot. Mud was allowed to dry overnight prior to planting or transplanting. Rice seeds were planted in Sun Gro MetroMix® 306 planting mixture, which typically has a pH of 6.0 to 6.8 and an organic matter content of about 30 percent, in plastic plug trays. Seedlings at the second or third leaf stage of growth were transplanted into 840 mL of mud contained in 32-oz. non-perforated plastic pots with a surface area of 86.59 cm^2 4 days prior to herbicide application. The paddy was created by filling the headspace of the pots with 2.5 to 3 cm of water. When required to ensure good germination and healthy plants, a fungicide treatment and/or other chemical or physical treatment was applied. The plants were grown for 4-22 days in a greenhouse with an approximate 14 h photoperiod which was maintained at about 29′C during the day and 26° C. during the night. Nutrients were added as Osmocote® (19:6:12, N:P:K+ minor nutrients) at 2 g per 16-oz. pot and 4 g per 32-oz. pot. Water was added on a regular basis to maintain the paddy flood, and supplemental lighting was provided with overhead metal halide 1000-Watt lamps as necessary. The plants were employed for testing when they reached the first through fourth true leaf stage.
(§3) Treatments consisted of the acid or esters of 4-amino-3-chloro-5-fluoro-6-(4-chloro-2-fluoro-3-methoxy-phenyl)pyridine-2-carboxylic acid (compound A) each formulated as an SC (suspension concentrate) and various herbicidal components alone and in combination. Forms of compound A were applied on an acid equivalent basis.
(§4) Other herbicidal components were applied on an active ingredient basis and included 4-hydroxyphenyl pyruvate dioxygenase (HPPD)-inhibiting herbicides mesotrione formulated as Callisto®, sulcotrione formulated as Mikado®, pyrazolynate formulated as Sunbird® 10% GR, and benzobicyclon formulated as Benzobicyclon 3.5% or technical material.
(§5) Treatment requirements for each compound or herbicidal component were calculated based upon the rates being tested, the concentration of active ingredient or acid equivalent in the formulation, an application volume of 2 mL per component per pot, and an application area of 86.59 cm^2 per pot.
(§6) For formulated compounds, a measured amount was placed in an individual 100 or 200 mL glass vial and was dissolved in a volume of 1.25% (v/v) Agri-Dex® crop oil concentrate to obtain application solutions.
(§7) For technical grade compounds, a weighed amount was placed in an individual 100 to 200 mL glass vial and was dissolved in a volume of acetone to obtain concentrated stock solutions. […] The concentrated stock solutions obtained were diluted with an equivalent volume of an aqueous mixture containing 2.5% (v/v) crop oil concentrate so that the final application solutions contained 1.25% (v/v) crop oil concentrate.
(§8) Applications were made by injecting with a pipetter appropriate amounts of the application solutions, individually and sequentially, into the aqueous layer of the paddy. Control plants were treated in the same manner with the solvent blank. Applications were made so that all treated plant material received the same concentrations of acetone and crop oil concentrate.
(§9) The treated plants and control plants were placed in a greenhouse as described above and water was added as needed to maintain a paddy flood. […]

ECHCG = assay: as above; type: in vivo, Echinochloa crusgalli (L.) Beauv.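 For Visual Weed Control (%) - 20 DAA ECHCG Obs: visual score 0 no injury to 100 complete kill versus untreated plants.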
Description: as §1, §2, §3, §4, §5, §6, §7, §8, §9

SMILES	Visual Weed Control (%) - 22 DAA CYPRO Obs (CYPRO; 10.6 gae/ha)	Visual Weed Control (%) - 22 DAA CYPRO Obs (CYPRO; 21.2 gae/ha)	Visual Weed Control (%) - 22 DAA CYPRO Obs (CYPRO; 42.4 gae/ha)	Visual Weed Control (%) - 21 DAA ECHCG Obs (ECHCG; 8.75 gae/ha)	Visual Weed Control (%) - 20 DAA ECHCG Obs (ECHCG; 17.5 gae/ha)	Visual Weed Control (%) - 21 DAA ECHCG Obs (ECHCG; 17.5 gae/ha)	Visual Weed Control (%) - 20 DAA ECHCG Obs (ECHCG; 35 gae/ha)	Visual Weed Control (%) - 21 DAA CYPRO Obs (CYPRO; 17.5 gae/ha)	Visual Weed Control (%) - 22 DAA ECHCG Obs (ECHCG; 8.75 gae/ha)	Visual Weed Control (%) - 22 DAA ECHCG Obs (ECHCG; 17.5 gae/ha)
COc1c(Cl)ccc(-c2nc(C(=O)O)c(Cl)c(N)c2F)c1F [Compound A Acid, 4-amino-3-chloro-6-(4-chloro-2-fluoro-3-methoxyphenyl)-5-fluoropyridine-2-carboxylic acid]	0%	40% and 60%	90%	20%	35% and 30%	30%	55%	–	–	–
COc1c(Cl)ccc(-c2nc(C(=O)OCc3ccccc3)c(Cl)c(N)c2F)c1F [Compound A Benzyl Ester, benzyl ester of 4-amino-3-chloro-5-fluoro-6-(4-chloro-2-fluoro-3-methoxy-phenyl)pyridine-2-carboxylic acid]	–	–	–	–	–	–	–	10%	45%	90%
